Patent publication US20090233881A1, “COMPOUNDS HAVING ANTI-CANCER PROPERTIES” (Vital Health Sciences Pty. Ltd, priority 2005, published 2009)
Where “and” joins values, the source holds several entries; their conditions need not be identical. Equal values may be shown once.

Experiments:
[1] = tested on: MCF-7 breast cancer cells; assay: MCF-7 breast cancer cell line proliferation assay (MTS); format: cell-based, human; conditions: for activity on MCF-7 proliferation (MTS; quantity not given): MCF-7, 72 hours, no E
Description: MCF-7 breast cancer cell growth conditions: Cells were grown in 75 cm^2 plastic tissue cell flasks as monolayer in Dulbecco's Modified Eagle Medium (DMEM), supplemented with 10% FBS in a humidified atmosphere of 5% CO2 in 95% air at 37° C. Cells were sub-cultured at bi-weekly intervals by suspension with 0.06% trypsin/0.02% EDTA (pH 7.3).
MCF-7 breast cancer cell line proliferation assays (MITS Assays): Cells were trypsinised (as performed during sub-culturing) in DMEM, supplemented with 10% FBS. Cells were re-suspended to a cell count of 10,000 cells/ml, with the use of a haemocytometer. Cells were seeded at 1,000 cells/well or by the addition of 100 μl of the cell suspension into 96-well cell culture plates. The cells were left overnight and then were synchronised (by serum starving for 24 hours), prior to the start of experiments.
After the cells were synchronised the cells were treated with the appropriate concentrations of the treatments, prepared in 100% ethanol (2, 5, 10, 15, 20, 30 & 50 μg/ml), they were added to RPMI medium 1640 supplemented with 10% dextran-charcoal treated FCS (DCFBS). […] After 72 hours the plates are incubated with MTS reagent (as described in Example 1) for 1 hr. The plate was read in a spectrophotometer at 490 nm. There were 8 replicates for each compound tested (at the various concentrations shown below).
Treatment abbreviations: GT=gamma-tocopherol; GTP=gamma-tocopheryl phosphate; GT2P=gamma-di-tocopheryl phosphate, GTPM=gamma-tocopheryl phosphate mixture (combination of GTP and GT2P).

[2] = tested on: MCF-7 breast cancer cells; assay: as above; format: cell-based, human; conditions: MCF-7, 72 hours, no E, concentration 1
[3] = tested on: DU-145 prostate cancer cells; assay: DU-145 cell growth assay (Coulter cell counting); format: cell-based; conditions: DU-145, 12 days; for Total viable cells/well: single well
Description: Culture of stock cells. DU-145 prostate cancer cells were purchased from American Type Culture Collection (Manassas, Va., USA). Stock cells were grown in Dulbecco's Modified Eagle Medium (DMEM) (Gibco BRL, Grand Island N.Y.) supplemented with 5% FBS (Fetal Bovine Serum, Gibco BRL, Grand Island N.Y.) in a humidified atmosphere of 5% CO2 in air at 37° C. Cells were subcultured every 1-2 times a week.
Cell growth assay. Cells were trypsinized from the stock plates by treatment with trypsin/versene, added to an equal volume of phenol red-free RPMI-1640 (Gibco BRL, Grand Island N.Y.) supplemented with 5% dextran-charcoal treated fetal calf serum (DCFCS). Cells were resuspended to a cell count of 0.1×10^5 cells/ml with the use of a haemocytometer and plated in monolayer in 0.5 ml aliquots into 24-well plastic culture dishes (Costar, Corning USA). After 24 hours, cells were treated with appropriate concentrations (see table) of γ-tocopheryl phosphate mixture (γ-TP) (Vital Health) and Lycopene (Sigma) or combinations of Lycopene and γ-TP diluted in phenol red-free RPMI medium 1640 supplemented with 5% DCFCS. The culture medium was changed every 3-4 days. The combination treatment contained lycopene and γ-TP in a 1:1 ratio by molecular weight/mass with lycopene varying from 5 ug/ml-40 ug/ml.
Cell counting. The cells were washed twice with 0.9% NaCl to remove non-adherent dead cells and were then lysed in 0.5 ml 2.5 mM Hepes buffer/[…] MgCl2 plus two drops of zapoglobin II lytic reagent (Beckman Coulter, Coulter Corp USA) for 5-15 minutes. The nuclei released were suspended in isoton III (Beckman Coulter, Coulter Corp, USA) and counted on a Coulter counter with particle size set at >5 μm. All cell counts were carried out in triplicate on triplicate well contents. The results were calculated as the average ±standard error. P-values were determined using Independent samples T-Test (by standard software packages SPSS).

SMILES | activity on MCF-7 proliferation (MTS; quantity not given) ([1]; concentration 2 μg/ml) | activity on MCF-7 proliferation (MTS; quantity not given) ([1]; concentration 5 μg/ml) | activity on MCF-7 proliferation (MTS; quantity not given) ([1]; concentration 10 μg/ml) | activity on MCF-7 proliferation (MTS; quantity not given) ([1]; concentration 15 μg/ml) | activity on MCF-7 proliferation (MTS; quantity not given) ([1]; concentration 20 μg/ml) | activity on MCF-7 proliferation (MTS; quantity not given) ([1]; concentration 30 μg/ml) | activity on MCF-7 proliferation (MTS; quantity not given) ([1]; concentration 50 μg/ml) | activity on MCF-7 proliferation (MTS; quantity not given) [2] | relative potency as anti-cancer treatment ([1]; MCF-7) | Average total viable cells/well ([3]; Lycopene 5 ug/ml) | Total viable cells/well ([3]; Lycopene 5 ug/ml) | Average total viable cells/well ([3]; Lycopene 10 ug/ml) | Total viable cells/well ([3]; Lycopene 10 ug/ml) | Average total viable cells/well ([3]; Lycopene 15 ug/ml) | Total viable cells/well ([3]; Lycopene 15 ug/ml) | Average total viable cells/well ([3]; Lycopene 20 ug/ml) | Average total viable cells/well ([3]; Lycopene 25 ug/ml) | Total viable cells/well ([3]; Lycopene 25 ug/ml) | Average total viable cells/well ([3]; Lycopene 30 ug/ml)
Cc1c(OP(=O)(O)Oc2cc3c(c(C)c2C)O[C@](C)(CCC[C@H](C)CCC[C@H](C)CCCC(C)C)CC3)cc2c(c1C)O[C@](C)(CCC[C@H](C)CCC[C@H](C)CCCC(C)C)CC2 [GT2P, gamma-di-tocopheryl phosphate] | 4.91 | 31.07 | 39.471 | 53.126 | 64.557 | 98.43 | 126.506 | 7.283 |  |  |  |  |  |  |  |  |  |  | 
Cc1c(O)cc2c(c1C)O[C@](C)(CCC[C@H](C)CCC[C@H](C)CCCC(C)C)CC2 [GT, gamma-tocopherol] | 15.685 | 36.36 | 68.689 | 56.82 | 79.766 | 82.743 | 62.622 | −6.104 | least potent with limited activity |  |  |  |  |  |  |  |  |  | 
Cc1c(OP(=O)(O)O)cc2c(c1C)O[C@](C)(CCC[C@H](C)CCC[C@H](C)CCCC(C)C)CC2 [GTP, gamma-tocopheryl phosphate] | 5.624 | 4.807 | 25.102 | 43.512 | 64.719 | 81.81 | 109.928 | 7.32 |  |  |  |  |  |  |  |  |  |  | 
CC(C)=CCC/C(C)=C/C=C/C(C)=C/C=C/C(C)=C/C=C/C=C(C)/C=C/C=C(C)/C=C/C=C(\C)CCC=C(C)C [lycopene] |  |  |  |  |  |  |  |  |  | 4.367 ×10^5 cells/well | 4.392 ×10^5 cells/well and 4.383 ×10^5 cells/well and 4.325 ×10^5 cells/well | 3.712 ×10^5 cells/well | 3.555 ×10^5 cells/well and 3.869 ×10^5 cells/well | 3.716 ×10^5 cells/well | 3.704 ×10^5 cells/well and 3.727 ×10^5 cells/well | 0.276 ×10^5 cells/well | 1.478 ×10^5 cells/well | 1.759 ×10^5 cells/well and 1.196 ×10^5 cells/well | 0.120 ×10^5 cells/well
